Source: patent publication USH810H, “Biologically active amides” (priority 1976, dated 1990)

Tested on: isolated mouse vas deferens
Assay type: cell-based
Method: The compounds were examined for their ability to inhibit neurally evoked contractions of the isolated mouse vas deferens preparation (method of Hughes et al, Brain Research, 88 (1975) 296, using pulses at 0.1 Hz).
The heights of the five contractions that immediately preceded the addition of the first "dose" of test compound were measured and their mean calculated. The resultant mean contraction associated with a particular bath concentration of test compound was calculated from the heights of the 6th, 7th, 8th, 9th and 10th contractions after the addition of the appropriate "dose" of test compound, i.e. the five contractions that immediately preceded the subsequent "dose" or washout.
Generally at least two cumulative dose response curves were constructed and a mean D50 calculated.

SMILES	Relative Potency (Morphine) (RP=antilog[logD50(MORPHINE) - logD50(TEST COMPOUND)], morphine = 1.0)	Reversal of the inhibition of the contractions by naloxone
COC(=O)[C@H](CCSC)NC(=O)[C@H](Cc1ccccc1)NC(=O)CNC(=O)[C@@H](C)NC(=O)[C@@H](N)Cc1ccc(O)cc1 [5(b), H.Tyr. --D-Ala.Gly.Phe.Met.OMe]	94	
CN1CC[C@]23c4c5ccc(O)c4O[C@H]2[C@@H](O)C=C[C@H]3[C@H]1C5 [Morphine]		Reversal of the inhibition of the contractions was effected
